The values below come from article PMC5564600 (Oncotarget, 2017).

Assay in all cases: biochemical
Holding throughout (assay type): binding

The target of assay [1] is T1, panel of 442 kinases (Homo sapiens, UniProt P00519, M351T).
T1 construct: purchased Ambit Biosciences (scanMAXX KINOMEscan)
As to conditions: ABL1(M351T)-phosphorylated; for remaining activity at 1 µM: read-out: % of control at 1 µM.

For assay [2], the target named is T2, panel of 442 kinases (Homo sapiens, UniProt P00533, L861Q).
T2 construct: purchased Ambit Biosciences (scanMAXX KINOMEscan)
T2 sequence (P00533 25-1210 L861Q): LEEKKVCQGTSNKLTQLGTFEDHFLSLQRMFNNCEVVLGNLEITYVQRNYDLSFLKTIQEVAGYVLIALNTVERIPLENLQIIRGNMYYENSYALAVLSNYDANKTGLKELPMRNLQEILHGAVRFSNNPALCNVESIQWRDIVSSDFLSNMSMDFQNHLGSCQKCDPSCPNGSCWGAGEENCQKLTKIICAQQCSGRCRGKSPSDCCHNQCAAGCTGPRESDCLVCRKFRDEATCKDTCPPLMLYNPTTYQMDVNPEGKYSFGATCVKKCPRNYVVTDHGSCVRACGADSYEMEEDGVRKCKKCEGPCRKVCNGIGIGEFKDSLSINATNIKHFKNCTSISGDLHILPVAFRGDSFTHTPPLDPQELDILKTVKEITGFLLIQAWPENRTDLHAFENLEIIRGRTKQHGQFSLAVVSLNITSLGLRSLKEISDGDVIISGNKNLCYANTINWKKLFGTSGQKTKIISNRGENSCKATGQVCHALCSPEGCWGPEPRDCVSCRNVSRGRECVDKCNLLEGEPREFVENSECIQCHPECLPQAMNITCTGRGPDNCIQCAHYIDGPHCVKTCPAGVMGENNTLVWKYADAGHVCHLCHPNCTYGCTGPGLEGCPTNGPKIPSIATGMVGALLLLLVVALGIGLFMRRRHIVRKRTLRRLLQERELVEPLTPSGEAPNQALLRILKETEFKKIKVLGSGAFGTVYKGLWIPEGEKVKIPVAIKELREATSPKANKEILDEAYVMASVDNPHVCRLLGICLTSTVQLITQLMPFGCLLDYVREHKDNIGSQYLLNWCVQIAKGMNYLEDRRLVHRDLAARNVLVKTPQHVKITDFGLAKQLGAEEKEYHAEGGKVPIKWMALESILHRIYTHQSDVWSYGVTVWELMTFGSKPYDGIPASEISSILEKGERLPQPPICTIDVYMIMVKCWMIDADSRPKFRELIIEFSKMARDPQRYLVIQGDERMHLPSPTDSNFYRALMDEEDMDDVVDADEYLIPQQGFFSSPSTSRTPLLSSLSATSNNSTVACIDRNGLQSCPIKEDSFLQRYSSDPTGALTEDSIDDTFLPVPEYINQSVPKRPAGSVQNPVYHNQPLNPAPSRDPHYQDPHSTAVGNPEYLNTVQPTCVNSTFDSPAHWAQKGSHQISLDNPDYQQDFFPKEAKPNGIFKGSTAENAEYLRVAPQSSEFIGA
As to conditions: EGFR(L861Q); for remaining activity at 1 µM: read-out: % of control at 1 µM.

Assay [3] deals with T3, panel of 442 kinases (Homo sapiens, UniProt P08069).
T3 construct: purchased Ambit Biosciences (scanMAXX KINOMEscan)
T3 sequence (P08069 31-1367): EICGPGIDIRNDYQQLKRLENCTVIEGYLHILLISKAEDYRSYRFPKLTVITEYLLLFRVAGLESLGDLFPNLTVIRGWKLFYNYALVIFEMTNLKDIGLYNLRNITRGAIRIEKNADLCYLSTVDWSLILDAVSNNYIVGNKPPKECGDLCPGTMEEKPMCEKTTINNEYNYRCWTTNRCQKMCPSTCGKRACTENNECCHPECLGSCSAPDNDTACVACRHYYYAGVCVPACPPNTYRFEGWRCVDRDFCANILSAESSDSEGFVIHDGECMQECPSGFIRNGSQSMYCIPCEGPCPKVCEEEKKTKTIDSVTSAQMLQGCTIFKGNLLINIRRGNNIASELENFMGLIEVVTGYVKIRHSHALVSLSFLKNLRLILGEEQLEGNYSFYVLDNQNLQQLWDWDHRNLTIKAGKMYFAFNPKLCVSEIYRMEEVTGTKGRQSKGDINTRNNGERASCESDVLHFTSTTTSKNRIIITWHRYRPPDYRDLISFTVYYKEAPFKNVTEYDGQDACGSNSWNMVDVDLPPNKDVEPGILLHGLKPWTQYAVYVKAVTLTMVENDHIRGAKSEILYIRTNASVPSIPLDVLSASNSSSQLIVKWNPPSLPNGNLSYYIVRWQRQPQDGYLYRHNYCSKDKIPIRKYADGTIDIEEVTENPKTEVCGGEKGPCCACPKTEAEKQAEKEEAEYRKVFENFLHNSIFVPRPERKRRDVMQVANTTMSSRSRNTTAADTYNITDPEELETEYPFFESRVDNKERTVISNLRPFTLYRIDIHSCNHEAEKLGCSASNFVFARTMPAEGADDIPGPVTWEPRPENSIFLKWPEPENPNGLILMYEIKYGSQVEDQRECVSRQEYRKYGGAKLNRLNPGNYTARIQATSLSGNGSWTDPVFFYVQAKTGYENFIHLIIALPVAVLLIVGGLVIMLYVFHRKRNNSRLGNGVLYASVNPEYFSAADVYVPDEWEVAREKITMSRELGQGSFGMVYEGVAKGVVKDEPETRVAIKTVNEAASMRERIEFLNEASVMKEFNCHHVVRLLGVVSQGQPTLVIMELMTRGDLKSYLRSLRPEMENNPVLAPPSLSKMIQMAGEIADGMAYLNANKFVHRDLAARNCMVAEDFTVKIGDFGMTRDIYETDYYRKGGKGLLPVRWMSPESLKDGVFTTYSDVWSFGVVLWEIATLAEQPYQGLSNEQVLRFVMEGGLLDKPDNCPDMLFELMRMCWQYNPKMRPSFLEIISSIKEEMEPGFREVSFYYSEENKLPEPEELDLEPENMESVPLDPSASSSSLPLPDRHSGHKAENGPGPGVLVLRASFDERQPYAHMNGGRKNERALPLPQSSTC
The following applies: kinase IGF1R; for remaining activity at 1 µM: read-out: % of control at 1 µM.

The target of assay [4] is T4, panel of 442 kinases (Homo sapiens, UniProt P36896).
T4 construct: purchased Ambit Biosciences (scanMAXX KINOMEscan)
T4 sequence (P36896 24-505): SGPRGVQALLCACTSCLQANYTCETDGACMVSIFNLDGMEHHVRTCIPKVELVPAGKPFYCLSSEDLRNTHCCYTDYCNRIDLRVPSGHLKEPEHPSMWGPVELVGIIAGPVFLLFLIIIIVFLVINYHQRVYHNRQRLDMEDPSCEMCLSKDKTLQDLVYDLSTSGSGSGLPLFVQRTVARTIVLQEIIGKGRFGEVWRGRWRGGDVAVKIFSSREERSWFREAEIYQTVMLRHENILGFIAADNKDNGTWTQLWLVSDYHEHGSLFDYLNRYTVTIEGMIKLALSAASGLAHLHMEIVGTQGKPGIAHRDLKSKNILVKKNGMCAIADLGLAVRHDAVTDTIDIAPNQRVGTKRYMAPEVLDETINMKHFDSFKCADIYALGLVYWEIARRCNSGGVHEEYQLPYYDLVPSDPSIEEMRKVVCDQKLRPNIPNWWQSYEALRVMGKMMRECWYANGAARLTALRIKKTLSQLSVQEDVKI
The following applies: ACVR1B; for remaining activity at 1 µM: read-out: % of control at 1 µM.

Assay [5] deals with T5, panel of 442 kinases (Homo sapiens, UniProt P42338).
T5 construct: purchased Ambit Biosciences (scanMAXX KINOMEscan)
T5 sequence (P42338 whole entry): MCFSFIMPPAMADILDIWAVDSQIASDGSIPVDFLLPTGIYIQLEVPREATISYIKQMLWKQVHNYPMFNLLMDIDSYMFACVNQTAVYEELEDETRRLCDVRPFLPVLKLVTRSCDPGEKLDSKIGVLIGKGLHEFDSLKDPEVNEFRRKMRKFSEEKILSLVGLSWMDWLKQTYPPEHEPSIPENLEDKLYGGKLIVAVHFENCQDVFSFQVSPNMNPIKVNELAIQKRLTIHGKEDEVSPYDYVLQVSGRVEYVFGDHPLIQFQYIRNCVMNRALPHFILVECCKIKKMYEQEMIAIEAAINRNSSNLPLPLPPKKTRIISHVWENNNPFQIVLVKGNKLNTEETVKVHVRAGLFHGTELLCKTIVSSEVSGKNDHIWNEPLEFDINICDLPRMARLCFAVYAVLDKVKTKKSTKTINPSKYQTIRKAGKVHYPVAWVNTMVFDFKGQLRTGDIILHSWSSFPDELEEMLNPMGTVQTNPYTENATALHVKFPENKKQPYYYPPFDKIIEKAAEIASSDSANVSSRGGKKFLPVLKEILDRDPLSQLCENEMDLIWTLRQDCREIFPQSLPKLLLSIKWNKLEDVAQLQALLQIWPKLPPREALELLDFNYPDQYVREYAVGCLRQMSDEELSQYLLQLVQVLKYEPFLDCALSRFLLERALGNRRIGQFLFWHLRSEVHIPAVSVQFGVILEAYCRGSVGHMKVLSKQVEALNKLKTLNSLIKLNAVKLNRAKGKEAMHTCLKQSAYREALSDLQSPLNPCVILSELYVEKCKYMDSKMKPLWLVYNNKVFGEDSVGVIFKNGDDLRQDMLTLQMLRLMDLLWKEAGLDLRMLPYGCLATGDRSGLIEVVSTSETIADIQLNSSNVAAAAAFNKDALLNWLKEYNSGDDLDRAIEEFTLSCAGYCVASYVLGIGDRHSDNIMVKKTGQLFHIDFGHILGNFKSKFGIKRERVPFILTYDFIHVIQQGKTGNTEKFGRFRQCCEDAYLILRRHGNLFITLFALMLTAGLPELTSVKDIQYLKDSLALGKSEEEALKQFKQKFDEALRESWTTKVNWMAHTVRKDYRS
The following applies: kinase PIK3CB; 1 µM; read-out: % of control at 1 µM.

In assay [6] the target is T6, panel of 442 kinases (Homo sapiens, UniProt Q12852).
T6 construct: purchased Ambit Biosciences (scanMAXX KINOMEscan)
T6 sequence (Q12852 1-859): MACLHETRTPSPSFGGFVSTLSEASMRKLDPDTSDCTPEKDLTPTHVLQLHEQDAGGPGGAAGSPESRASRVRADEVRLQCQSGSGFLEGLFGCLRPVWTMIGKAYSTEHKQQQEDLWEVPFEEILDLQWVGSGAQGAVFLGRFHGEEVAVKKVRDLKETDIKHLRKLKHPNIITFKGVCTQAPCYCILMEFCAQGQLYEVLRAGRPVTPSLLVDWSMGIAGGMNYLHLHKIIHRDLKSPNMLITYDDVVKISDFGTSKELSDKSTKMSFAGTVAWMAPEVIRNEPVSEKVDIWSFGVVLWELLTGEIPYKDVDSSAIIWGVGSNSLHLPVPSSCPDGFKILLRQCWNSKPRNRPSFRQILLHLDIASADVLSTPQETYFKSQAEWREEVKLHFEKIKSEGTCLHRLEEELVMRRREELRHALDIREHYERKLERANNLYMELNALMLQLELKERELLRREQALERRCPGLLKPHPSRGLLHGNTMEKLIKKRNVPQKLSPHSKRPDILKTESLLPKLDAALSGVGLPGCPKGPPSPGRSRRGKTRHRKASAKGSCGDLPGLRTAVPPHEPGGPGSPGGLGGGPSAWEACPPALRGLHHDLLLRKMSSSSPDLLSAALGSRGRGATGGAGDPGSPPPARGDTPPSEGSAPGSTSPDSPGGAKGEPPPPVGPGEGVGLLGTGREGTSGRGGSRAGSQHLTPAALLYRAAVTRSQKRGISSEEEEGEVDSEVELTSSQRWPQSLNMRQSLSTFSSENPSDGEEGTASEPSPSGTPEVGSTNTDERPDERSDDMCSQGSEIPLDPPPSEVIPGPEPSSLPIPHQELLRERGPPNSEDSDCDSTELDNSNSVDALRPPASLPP
The following applies: DLK; for remaining activity at 1 µM: read-out: % of control at 1 µM.

Assay [7] has as its target T7, panel of 442 kinases (Homo sapiens, UniProt Q13873).
T7 construct: purchased Ambit Biosciences (scanMAXX KINOMEscan)
T7 sequence (Q13873 27-1038): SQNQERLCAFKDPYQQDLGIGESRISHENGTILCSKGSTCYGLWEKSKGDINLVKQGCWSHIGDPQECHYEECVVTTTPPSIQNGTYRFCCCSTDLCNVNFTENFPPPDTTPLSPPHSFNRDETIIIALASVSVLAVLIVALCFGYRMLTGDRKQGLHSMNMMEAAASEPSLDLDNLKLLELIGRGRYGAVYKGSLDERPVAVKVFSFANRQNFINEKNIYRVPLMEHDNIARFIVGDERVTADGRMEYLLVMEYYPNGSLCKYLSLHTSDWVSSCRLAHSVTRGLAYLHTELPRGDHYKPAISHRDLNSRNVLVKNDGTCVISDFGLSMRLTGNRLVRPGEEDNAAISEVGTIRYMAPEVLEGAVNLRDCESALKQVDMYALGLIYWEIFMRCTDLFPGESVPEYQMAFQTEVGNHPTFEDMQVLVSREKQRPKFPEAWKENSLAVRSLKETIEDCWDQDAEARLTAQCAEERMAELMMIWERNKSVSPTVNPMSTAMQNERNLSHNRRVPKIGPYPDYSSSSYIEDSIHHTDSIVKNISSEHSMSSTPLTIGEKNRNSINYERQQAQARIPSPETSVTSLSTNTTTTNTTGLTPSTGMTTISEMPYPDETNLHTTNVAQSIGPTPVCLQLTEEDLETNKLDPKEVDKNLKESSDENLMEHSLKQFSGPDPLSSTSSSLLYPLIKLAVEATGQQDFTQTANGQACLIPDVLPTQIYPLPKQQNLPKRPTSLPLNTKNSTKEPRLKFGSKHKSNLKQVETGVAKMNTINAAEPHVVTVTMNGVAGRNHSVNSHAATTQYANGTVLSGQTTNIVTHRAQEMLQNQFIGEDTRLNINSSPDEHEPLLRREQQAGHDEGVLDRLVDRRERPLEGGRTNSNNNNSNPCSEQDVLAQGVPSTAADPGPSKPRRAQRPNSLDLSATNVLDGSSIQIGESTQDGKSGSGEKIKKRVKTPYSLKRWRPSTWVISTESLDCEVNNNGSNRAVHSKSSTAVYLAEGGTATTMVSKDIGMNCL
The following applies: BMPR2; for remaining activity at 1 µM: read-out: % of control at 1 µM.

[8] abbreviates: 10 µM, read-out: % of control at 10 µM.

The structures appear in SMILES notation.

Consider `COc1ncc(-c2ccc3nccc(-c4ccnnc4)c3c2)cc1NS(=O)(=O)c1ccc(F)cc1F` [Omipalisib], for which the remaining activity at 1 µM at panel of 442 kinases [1] was 94%; on panel of 442 kinases [2], 100%; on panel of 442 kinases [3], 100%; on panel of 442 kinases [4], 100%; at panel of 442 kinases [5], 0%; on panel of 442 kinases [6], 63%. Besides, the remaining activity at 1 µM at panel of 442 kinases [7] stood at 100%.

As to `Cn1c(=O)n(-c2ccc(C(C)(C)C#N)cc2)c2c3cc(-c4cnc5ccccc5c4)ccc3ncc21` [Dactolisib, 2-methyl-2-[4-(3-methyl-2-oxo-8-quinolin-3-yl-2,3-dihydroimidazo[4,5-c]quinolin-1-yl)-phenyl] propionitrile], the remaining activity at 1 µM at panel of 442 kinases [1] is 89%; at panel of 442 kinases [3], 95%; at panel of 442 kinases [4] it was 100%; at panel of 442 kinases [5] it was 64%; at panel of 442 kinases [6] it was 100%; at panel of 442 kinases [7] it was 83%.

In the case of `Nc1cc(C(F)(F)F)c(-c2cc(N3CCOCC3)nc(N3CCOCC3)n2)cn1` [Buparlisib], the remaining activity at 1 µM was 90% on panel of 442 kinases [1]; 88% at panel of 442 kinases [2]; 100% on panel of 442 kinases [3]; 87% on panel of 442 kinases [4]; 94% on panel of 442 kinases [6]; 86% on panel of 442 kinases [7]. For the same compound, the remaining activity at 10 µM on panel of 442 kinases [1] (setting [8]) amounted to 97%; on panel of 442 kinases [2] (setting [8]), 83%; at panel of 442 kinases [3] (setting [8]), 100%; on panel of 442 kinases [4] (setting [8]), 83%; on panel of 442 kinases [6] (setting [8]), 100%; on panel of 442 kinases [7] (setting [8]), 88%.

As to `FC(F)c1nc2ccccc2n1-c1nc(N2CCOCC2)nc(N2CCOCC2)n1` [ZSTK474, 2-(difluoromethyl)-1-[4,6-di(4-morpholinyl)-1,3,5-triazin-2-yl]-1H-benzimidazole], the remaining activity at 1 µM is 100% at panel of 442 kinases [1]; 100% on panel of 442 kinases [2]; 100% on panel of 442 kinases [3]; 60% at panel of 442 kinases [4]; 0% at panel of 442 kinases [5]; 100% on panel of 442 kinases [6]. For the same compound, the remaining activity at 1 µM on panel of 442 kinases [7] amounted to 100%.
